# Entries after “also recorded” stand apart in the source; their conditions may differ.
# What was measured:
# Format in all cases: in vivo, C57BL/6 mice
# [1] = system: experimental autoimmune encephalomyelitis (EAE) mice; experiment: Experimental autoimmune encephalomyelitis (EAE) in mice: clinical score, body weight, survival
# Protocol: In the experiments we used fifteen animals per group. EAE was induced as described (Slavin A. Autoimmunity 1998, 28: 109) in C57BL mice by […]. The immunization was carried out with 100 μg of a partial peptide of myelin/oligodendrocyte glycoprotein ([…]) in complete Freund's adjuvant containing 4 mg of Mycobacterium tuberculosis H37Ra in 1 ml. The mice were immunized by subcutaneous injection of this emulsion on day 0. In addition, on day 0 and 2, were administered intraperitoneally 300 ng/200 μl of Bordetella pertussis toxin. The administration of 6 mg/kg of oleanolic acid was performed intraperitoneally once a day, beginning:
# 1.—12 days after induction of EAE, when clinical symptoms were detected, until the end of the experiment (21 days after induction) (OA1), and
# 2.—after 7 days of induction of EAE, before the onset of the disease, until the end of the experiment (21 days after induction) (OA2).
# Mice were examined, weighed and scored daily in a double-blind manner for signs of EAE. OA-treated EAE mice were compared with a group of EAE animals treated with placebo, with untreated control animals or control animals received the same daily dose oleanolic acid. In addition, a pathologic evaluation was performed to confirm the effect of improving the state of the disease. The weight of the mice in each group is represented in FIGS. 1 A and 2 A. The level of paralysis reached by each group of mice is shown in FIGS. 1 B and 2 B.
# The effect of disease improvement (clinical effect) by the action of oleanolic acid is scored and evaluated with the pattern presented below.
# Grade 0.5, partial loss/reduced tail tone, assessed by inability to curl the distal end of the tail (Tail 50% or ⅔).
# Grade 1.0, tail atony 100%
# Grade 1.5, slightly/moderately clumsy gait, impaired righting ability, or combination.
# Grade 2.0, hind limb weakness, partial (1 or 2)
# Grade 2.5, partial (1 or 2) hind limb paralysis.
# Grade 3, complete hind limb paralysis.
# Grade 3.5, limb weakness.
# Grade 4, tetraplegic. Complete limb paralysis
# Grade 5, moribund state or death.
# Chronic progressive EAE disease was induced in adult 8-10-wk-old female C57BL/J6 mice following the protocol described by (Slavin A. Autoimmunity 1998, 28:109-20). Mice were injected in the tail base bilaterally with an innoculum containing 100 μg of MOG peptide 35-55 emulsified in complete Freund's adjuvant containing 0.4 mg/ml Mycobacterium tuberculosis H37 RA. Then, i.p. injection 300 ng/animal of B. pertussis toxin was administered by two times with an interval of 48 hours. Mice were examined daily to monitor weight loss and the onset of neurological symptoms
# Osteopontin = Osteopontin in CNS tissues of EAE mice by ELISA; conditions: spinal cord, brain and cerebellum, day 21 post-immunization, vs EAE mice
# Protocol: Animals of the different experimental groups were sacrificed at day 21 post-immunization and CNS protein extracts (cerebral cortex, cerebellum and spinal cord) were prepared by homogenization in a solution: 0.4 M NaCl, 0.05% Tween 20, 0.5% BSA, 0.1 mM phenylmethylsulfonyl fluoride, 0.1 mM benzetonium chloride, 10 mM EDTA and 20 KI aprotinin (100 mg tissue/ml). The homogenate was centrifuged at 10,000 rpm for 10 min at 4° C. The concentration of osteopontin was determined in the supernatants by a commercial ELISA kit.
# [2] = system: blood-brain barrier permeability; experiment: Evans blue extravasation (blood-brain barrier permeability) in CNS tissues of EAE mice; conditions: spinal cord, brain and cerebellum, vs untreated EAE animals
# Protocol: Evans blue dye is able to bind quantitatively to albumin, both in vivo and in vitro. This property has been widely used for quantification of protein extravasation as an index of increased vascular permeability and, indirectly, of tissue damage. The Evans Blue, once extravasated into the tissues, is removed from them, and then quantified by visible spectrophotometry.
# Mice from all experimental groups were given 30 mg/kg of Evans Blue i.p. Then, the spinal cord, cerebrum and cerebellum was removed and washed in saline. The dye was extracted from the CNS tissues with formamide and the concentration was determined by measuring the absorvance at 620 nm. CNS tissue was dried 24 h at 60° C. and weighed. The extravasated dye was expressed as μg of Evans Blue/mg dried weight of the tissue.
# [3] = system: leukocyte rolling and adhesion on brain microvasculature; experiment: Intravital fluorescence microscopy of leukocyte-endothelium interactions in brain microvasculature of EAE mice; conditions: vs untreated EAE group
# Protocol: Intravital microscopy techniques allow the study of leukocyte-endothelium interactions. […] To make a precise study of leukocyte-endothelium interactions, we first made a record of the venule for one minute using a camcorder, and in a second time, a more detailed analysis was performed. The parameters of interest were the number of leukocytes adhering to the venular endothelium (number of leukocytes stationary for more than 30 seconds), and the number of rolling leukocytes (number of white cells per minute moving at a velocity less than that of erythrocytes).
# The craniotomy was performed on the parietal zone. Animals received i.v. administration of rhodamine 6G (0.3 mg/kg body weight) to fix leucocytes. The fluorescence associated to rhodamine 6G was visualized at 510-560 nm by epi-ilumination. The microscope (20×) was used for observing micro-circulating events in brain.
smiles,measurement,setting,value
"CC1(C)CC[C@]2(C(=O)O)CC[C@]3(C)C(=CCC4[C@@]5(C)CC[C@H](O)C(C)(C)C5CC[C@]43C)C2C1 (stereo partly drawn) [oleanolic acid, 3β-hydroxyolean-12-en-28-oic acid]",clinical status / severity of the disease (signs of paralysis score),"[1]; OA1: 6 mg/kg ip daily from day 12 after induction (onset of clinical symptoms) to day 21, vs untreated EAE mice",decreases the severity of the disease; also recorded: significant improvement in clinical status of the disease
same,body weight,"[1]; OA1: 6 mg/kg ip daily from onset of symptoms, recovery effect (FIG. 1A)",reduction of body weight was suppressed
same,body weight,"[1]; OA2: 6 mg/kg ip daily from day 7, preventive effect (FIG. 2A)",reduction of body weight was suppressed
same,onset of the disease,"[1]; OA2: prophylactic, 6 mg/kg ip daily from day 7 after induction to day 21, 6 mg/kg",delays the onset of EAE; also recorded: delay in the onset of the disease
same,severity of EAE (clinical signs),"[1]; OA2: prophylactic, 6 mg/kg ip daily from day 7 after induction to day 21, vs untreated EAE mice",significantly attenuated
same,survival (time until animals die),"[1]; oleanolic acid given at the onset of symptoms, placebo-treated EAE mice die within first 40 days",≥ 60 days post-induction
same,Osteopontin expression in CNS tissues,Osteopontin; protocol OA1,significantly reduced
same,Osteopontin expression in CNS tissues,"Osteopontin; second protocol (printed OA1, FIG. 5: EAE+OA2)",significantly reduced
same,Evans blue leakage in CNS tissues (vascular permeability),[2]; protocol EAE+OA1,significantly reduced leakage
same,Evans blue leakage in CNS tissues (vascular permeability),[2]; protocol EAE+OA2,significantly reduced leakage
same,flow of leukocytes rolling on the endothelium,[3]; protocol EAE+OA1,significant decrease
same,leukocytes adhering to the endothelium,[3]; protocol EAE+OA1,significant decrease
same,flow of leukocytes rolling on the endothelium,[3]; protocol EAE+OA2,significant decrease
same,leukocytes adhering to the endothelium,[3]; protocol EAE+OA2,significant decrease
